Test results taken from the supplement of paper PMC10307832.

Columns and labels:
Assay in all cases: relative viability (nuclei count vs DMSO), 5 days (fraction); higher = more cells survive
Neratinib + OSI-027 = compound: CCOc1cc2ncc(C#N)c(Nc3ccc(OCc4ccccn4)c(Cl)c3)c2cc1NC(=O)/C=C/CN(C)C [Neratinib] + COc1cccc2cc(-c3nc([C@H]4CC[C@H](C(=O)O)CC4)n4ncnc(N)c34)[nH]c12 [OSI-027] (partner 0.5 µM)
How it was run: (§1)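 Nuclei were stained with Hoechst during a one-step fixation (final 0.05% Triton X-100, 1% formaldehyde, 1 ug/ml Hoechst) carried out 5 days after dosing, then counted on 4× images. The cells, lung cancer lines in 1536-well plates, had been dosed by pin tool the day after seeding with one drug alone or a fixed anchor-drug dose plus five library-drug doses (not always all listed) in √10 steps. Relative viability is the nuclei count in treated wells divided by that in vehicle wells, and each value is the median of duplicate plates.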

Neratinib + Pictilisib = compound: CCOc1cc2ncc(C#N)c(Nc3ccc(OCc4ccccn4)c(Cl)c3)c2cc1NC(=O)/C=C/CN(C)C [Neratinib] + CS(=O)(=O)N1CCN(Cc2cc3nc(-c4cccc5[nH]ncc45)nc(N4CCOCC4)c3s2)CC1 [Pictilisib] (partner 1 µM)
How it was run: as §1

Neratinib + Luminespib = compound: CCOc1cc2ncc(C#N)c(Nc3ccc(OCc4ccccn4)c(Cl)c3)c2cc1NC(=O)/C=C/CN(C)C [Neratinib] + CCNC(=O)c1noc(-c2cc(C(C)C)c(O)cc2O)c1-c1ccc(CN2CCOCC2)cc1 [Luminespib] (partner 0.01 µM)
How it was run: as §1

Neratinib + Palbociclib = compound: CCOc1cc2ncc(C#N)c(Nc3ccc(OCc4ccccn4)c(Cl)c3)c2cc1NC(=O)/C=C/CN(C)C [Neratinib] + CC(=O)c1c(C)c2cnc(Nc3ccc(N4CCNCC4)cn3)nc2n(C2CCCC2)c1=O [Palbociclib] (partner 0.5 µM)
How it was run: as §1

| Cell Line | relative viability (Neratinib + OSI-027; first compound 0.01 µM) | relative viability (Neratinib + OSI-027; first compound 0.03162 µM) | relative viability (Neratinib + OSI-027; first compound 0.1 µM) | relative viability (Neratinib + OSI-027; first compound 0.3162 µM) | relative viability (Neratinib + OSI-027; first compound 1 µM) | relative viability (Neratinib + Pictilisib; first compound 0.01 µM) | relative viability (Neratinib + Pictilisib; first compound 0.03162 µM) | relative viability (Neratinib + Pictilisib; first compound 0.1 µM) | relative viability (Neratinib + Pictilisib; first compound 0.3162 µM) | relative viability (Neratinib + Pictilisib; first compound 1 µM) | relative viability (Neratinib + Luminespib; first compound 0.01 µM) | relative viability (Neratinib + Luminespib; first compound 0.03162 µM) | relative viability (Neratinib + Luminespib; first compound 0.1 µM) | relative viability (Neratinib + Luminespib; first compound 0.3162 µM) | relative viability (Neratinib + Luminespib; first compound 1 µM) | relative viability (Neratinib + Palbociclib; first compound 0.01 µM) | relative viability (Neratinib + Palbociclib; first compound 0.03162 µM) | relative viability (Neratinib + Palbociclib; first compound 0.3162 µM) | relative viability (Neratinib + Palbociclib; first compound 1 µM) | relative viability (Neratinib + Palbociclib; first compound 0.1 µM) |
| --- | --- | --- | --- | --- | --- | --- | --- | --- | --- | --- | --- | --- | --- | --- | --- | --- | --- | --- | --- | --- |
| NCI-H520 | 0.288 | 0.253 | 0.261 | 0.234 | 0.178 | 0.297 | 0.377 | 0.222 | 0.215 | 0.188 | 0.244 | 0.207 | 0.231 | 0.214 | 0.228 | 0.191 | 0.242 | 0.213 | 0.183 | – |
| NCI-H1993 | 0.387 | 0.576 | 0.655 | 0.643 | 0.674 | – | 0.772 | 0.721 | 0.796 | – | 0.717 | 0.83 | 0.719 | 0.599 | 0.511 | 0.768 | 0.578 | 0.466 | 0.568 | 0.522 |
| NCI-H441 | 0.681 | 0.566 | 0.598 | 0.357 | 0.275 | 0.508 | 0.482 | 0.456 | 0.313 | 0.191 | 0.415 | 0.413 | 0.423 | 0.304 | 0.16 | 0.244 | 0.192 | 0.163 | 0.161 | 0.177 |
| EKVX | 0.712 | 0.693 | 0.656 | 0.365 | 0.195 | 0.476 | 0.387 | 0.32 | 0.163 | 0.129 | 0.821 | 0.884 | 0.708 | 0.496 | 0.246 | 0.384 | 0.448 | 0.132 | 0.152 | 0.243 |
| NCI-H1734 | 0.659 | 0.638 | – | 0.552 | 0.331 | 0.5 | 0.464 | 0.428 | 0.432 | 0.346 | 0.202 | 0.206 | 0.169 | 0.204 | 0.153 | 0.409 | 0.395 | 0.328 | 0.28 | 0.241 |
| ABC-1 | 0.436 | 0.441 | 0.47 | 0.42 | 0.214 | 0.783 | 0.582 | 0.672 | 0.666 | 0.387 | 0.337 | 0.659 | 0.405 | 0.315 | 0.278 | 0.618 | 0.721 | 0.587 | 0.486 | 0.472 |
| NCI-H650 | 0.546 | 0.544 | 0.553 | 0.46 | 0.456 | 0.974 | 0.898 | 0.729 | – | 0.644 | 0.814 | 0.888 | 0.621 | 0.722 | 0.392 | 0.372 | 0.306 | 0.294 | 0.371 | 0.293 |
| EPLC-272H | – | 0.294 | – | 0.24 | 0.194 | 0.376 | 0.387 | 0.316 | 0.338 | 0.307 | – | 0.616 | 0.464 | 0.315 | 0.135 | 0.357 | 0.309 | 0.295 | 0.292 | 0.224 |
| NCI-H647 | 0.831 | 0.738 | 0.593 | 0.483 | 0.175 | 0.437 | 0.506 | 0.456 | 0.364 | 0.183 | 0.308 | 0.128 | 0.0778 | 0.153 | 0.118 | 0.446 | 0.545 | 0.344 | 0.188 | 0.393 |
